Data published in patent US20220064138A1, “MACROLIDE BREFELDIN A ESTER DERIVATIVES AND USE THEREOF” (OCEAN UNIVERSITY OF CHINA, priority 2019, published 2022).
In brackets after ≈: the same amount, converted by molar mass.

Legend:
[1] = tested on: esophageal cancer Eca-109 cells; test: Cell proliferation assay (CCK-8); type: cell-based; settings: Homo sapiens, Eca-109, 72 h
Source text: (§1) CCK-8 method: The CCK-8 method is a highly sensitive, non-radioactive colorimetric assay for the determination of the number of viable cells in cell proliferation or cytotoxicity assays. The orange formazan dye produced by the bioreduction of CCK-8 by intracellular dehydrogenase is soluble in the cell culture medium, and the amount of formazan dye produced is proportional to the number of living cells. The kit used in this method is the tetrazolium salt-WST-8 (2-(2-methoxy-4-nitrophenyl)-3-(4-nitrophenyl)-5-(2,4-disulfophenyl)-2H-tetrazolium monosodium salt) developed by Dojindo Chemical Research Institute (Dojindo), which is capable of being reduced to a water-soluble formazan dye in the presence of the electronic carrier 1-Methoxy PMS.
(§2) Human cervical cancer Hela cells, pancreatic cancer PANC-1 cells, esophageal cancer Eca-109 cells, human leukemia K562 cells, human lung cancer A549 cells, human liver cancer HepG2 cells, human gastric cancer MKN-45 cells, human breast cancer MCF7 cells were cultured in DMEM medium containing 10% FBS (fetal bovine serum), 100 U/mL penicillin and 100 μg/ml streptomycin. Hepatocellular carcinoma cells Bel-7402 were cultured in RPMI-1640 medium containing 10% FBS (fetal bovine serum), 100 U/ml penicillin and 100 μg/ml streptomycin. All cells were placed in a cell culture incubator at 37° C. with 5% CO2. Cells fluid was changed every 3-5 days, and after 80% cell fusion, trypsin digestion and passaging were performed to keep the cells in good logarithmic growth phase.
(§3) All the samples to be tested were dissolved in DMSO.
(§4) Cells in logarithmic growth phase were inoculated in 96-well plates with 5000 cells/well respectively, and after 24 h of incubation, samples were added (final concentrations as shown in the table), and biplicate wells were set up for each sample. The amount of solvent of DMSO was not higher than 2‰. After 72 h, 10 μL of CCK-8 solution was added to each well and incubated for 1.5˜3 h at 37° C. The OD value at 450 nm was measured on an plate reader.
(§5) Inhibition rate (%)=(1−[(OD450 dosed well−OD450 blank well)/(OD450 control well−OD450 blank well)])×100%
(§6) The fitted IC50 values were calculated using the log (inhibitor) vs. response-Variable slop analysis method in GraphPad Prism software.

[2] = tested on: human breast cancer MCF7 cells; test: Cell proliferation assay (CCK-8); type: cell-based; settings: MCF7, 72 h
Source text: as §1, §2, §3, §4, §5, §6

[3] = tested on: human leukemia K562 cells; test: Cell proliferation assay (CCK-8); type: cell-based; settings: K562, 72 h
Source text: as §1, §2, §3, §4, §5, §6

[4] = tested on: human lung cancer A549 cells; test: Cell proliferation assay (CCK-8); type: cell-based; settings: A549, 72 h
Source text: as §1, §2, §3, §4, §5, §6

[5] = tested on: Human cervical cancer Hela cells; test: Cell proliferation assay (CCK-8); type: cell-based; settings: 72 h
Source text: as §1, §2, §3, §4, §5, §6

[6] = tested on: human liver cancer HepG2 cells; test: Cell proliferation assay (CCK-8); type: cell-based; settings: HepG2, 72 h
Source text: as §1, §2, §3, §4, §5, §6

[7] = tested on: pancreatic cancer PANC-1 cells; test: Cell proliferation assay (CCK-8); type: cell-based; settings: Homo sapiens, PANC-1, 72 h
Source text: as §1, §2, §3, §4, §5, §6

[8] = tested on: human gastric cancer MKN-45 cells; test: Cell proliferation assay (CCK-8); type: cell-based; settings: MKN-45, 72 h
Source text: as §1, §2, §3, §4, §5, §6

Kunming breed mice = test: Toxicity test after intraperitoneal administration to mice; type: in vivo; settings: 14 d; for Deaths: high and low doses (BFA effective amount conversion), ip., mice; for Mental condition of the animals after administration / Results of anatomy: abnormality in organs: male, Kunming, mouse, in vivo, ip
Experimental: Objective: Observation of toxic effects of compounds after intraperitoneally administration (ip.) to mice
1) Agents: Compounds disclosed herein were formulated to a suitable concentration.
2) Animals: Kunming breed mice, weight 18-22 g, male. Provided by Jinan Pengyue Laboratory Animal Breeding Co., Ltd. Animal license number: SCXK (Shandong 20140007)
Method: Kunming breed mice, were randomly grouped by weight, 6 mice per group, namely normal control group, BFA high and low dose groups (100 mg/kg and 50 mg/kg, respectively), and high and low dose groups of some compounds disclosed herein (BFA effective amount conversion). […] After 14 d of continuous administration, all the animals were weighed, and the animals were executed to observe whether there were any abnormalities in the organs.

[9] = Solubility test (shaking 24 h at 37° C., HPLC)
Method: Methods: Excess BFA and the compounds disclosed herein were added to 10 mL of three solvents, methanol, acetone and 5% DMSO+95% H2O, respectively, and shaken on a shaker at 37° C. at 100 r/min for 24 h. After 24 h, the samples were centrifuged at 15 000 r/min for 15 min to remove the undissolved compounds. The supernatant was filtered using a 0.45 μm membrane filter. The supernatant was appropriately diluted with methanol and contents of the compounds were determined by HPLC method to calculate the solubility.

| SMILES | IC50 [1] | IC50 [2] | IC50 [3] | IC50 [4] | IC50 [5] | IC50 [6] | IC50 [7] | IC50 [8] | Deaths (Kunming breed mice) | Mental condition of the animals after administration (Kunming breed mice) | Results of anatomy: abnormality in organs (Kunming breed mice) | solubility at 24 h ([9]; 5% DMSO + 95% H2O) | solubility at 24 h ([9]; acetone) | solubility at 24 h ([9]; methanol) |
| --- | --- | --- | --- | --- | --- | --- | --- | --- | --- | --- | --- | --- | --- | --- |
| C[C@H]1CCC/C=C/[C@@H]2C[C@H](OC(=O)/C=C/c3cccc(F)c3)C[C@H]2[C@H](O)/C=C/C(=O)O1 [Compound 1a, 7-O-(3-fluorocinnamic acid)acyl BFA] | 1000 to 10000 nM | 100 to 1000 nM | 100 to 1000 nM | 100 to 1000 nM | 1000 to 10000 nM | 100 to 1000 nM | 100 to 1000 nM | 100 to 1000 nM | no deaths | good mental condition | no significant abnormality in all organs | 0.33 ± 0.13 mg/mL | 21.9 ± 1.53 mg/mL (≈ 51.1 mM) | 21.3 ± 1.52 mg/mL (≈ 49.8 mM) |
| C[C@H]1CCC/C=C/[C@@H]2C[C@H](O)C[C@H]2[C@H](OC(=O)/C=C/c2cccc(F)c2)/C=C/C(=O)O1 [Compound 1b, 4-O-(3-fluorocinnamic acid)acyl BFA] | 100 to 1000 nM | 100 to 1000 nM | 100 to 1000 nM | 100 to 1000 nM | 100 to 1000 nM | 100 to 1000 nM | 100 to 1000 nM | 100 to 1000 nM | no deaths | good mental condition | no significant abnormality in all organs | 0.32 ± 0.05 mg/mL | 21 ± 1.42 mg/mL (≈ 49.1 mM) | 21.1 ± 1.32 mg/mL (≈ 49.3 mM) |
| C[C@H]1CCC/C=C/[C@@H]2C[C@H](OC(=O)/C=C/c3cccc(F)c3)C[C@H]2[C@H](OC(=O)/C=C/c2cccc(F)c2)/C=C/C(=O)O1 [Compound 1c, 4,7-O-bis(3-fluorocinnamic acid)acyl BFA] | 1000 to 10000 nM | 1000 to 10000 nM | 100 to 1000 nM | 1000 to 10000 nM | 1000 to 10000 nM | 1000 to 10000 nM | 1000 to 10000 nM | 100 to 1000 nM | no deaths | good mental condition | no significant abnormality in all organs | 0.2 ± 0.91 mg/mL | 12.1 ± 0.91 mg/mL (≈ 21.1 mM) | 12.2 ± 1.59 mg/mL (≈ 21.2 mM) |
| C[C@H]1CCC/C=C/[C@@H]2C[C@H](OC(=O)/C=C/c3ccc(N(C)C)cc3)C[C@H]2[C@H](O)/C=C/C(=O)O1 [Compound 10a, 7-O-(4-dimethylaminocinnamic acid)acyl BFA] | 1000 to 10000 nM | 100 to 1000 nM | 100 to 1000 nM | 100 to 1000 nM | 1000 to 10000 nM | 1000 to 10000 nM | 1000 to 10000 nM | 100 to 1000 nM | no deaths | good mental condition | no significant abnormality in all organs | 0.75 ± 1.6 mg/mL | 25.6 ± 1.74 mg/mL (≈ 56.5 mM) | 25.3 ± 4.35 mg/mL (≈ 55.7 mM) |
| C[C@H]1CCC/C=C/[C@@H]2C[C@H](O)C[C@H]2[C@H](OC(=O)/C=C/c2ccc(N(C)C)cc2)/C=C/C(=O)O1 [Compound 10b, 4-O-(4-dimethylaminocinnamic acid)acyl BFA] | 1000 to 10000 nM | 100 to 1000 nM | 100 to 1000 nM | 100 to 1000 nM | 100 to 1000 nM | 100 to 1000 nM | 100 to 1000 nM | 100 to 1000 nM | no deaths | good mental condition | no significant abnormality in all organs | 0.72 ± 0.13 mg/mL | 23.2 ± 1.32 mg/mL (≈ 51.1 mM) | 24.2 ± 1.22 mg/mL (≈ 53.3 mM) |
| C[C@H]1CCC/C=C/[C@@H]2C[C@H](OC(=O)/C=C/c3ccncc3)C[C@H]2[C@H](O)/C=C/C(=O)O1 [Compound 14a, 7-O-(3-(pyridine-4-yl)acrylic acid)acyl BFA] | 1000 to 10000 nM | 100 to 1000 nM | 100 to 1000 nM | 100 to 1000 nM | 100 to 1000 nM | < 100 nM | < 100 nM | 100 to 1000 nM |  |  |  |  |  |  |
| C[C@H]1CCC/C=C/[C@@H]2C[C@H](O)C[C@H]2[C@H](OC(=O)/C=C/c2ccncc2)/C=C/C(=O)O1 [Compound 14b] | 1000 to 10000 nM | 100 to 1000 nM | 100 to 1000 nM | 100 to 1000 nM | 100 to 1000 nM | < 100 nM | < 100 nM | 100 to 1000 nM |  |  |  |  |  |  |
| C[C@H]1CCC/C=C/[C@@H]2C[C@H](OC(=O)/C=C/c3ccncc3)C[C@H]2[C@H](OC(=O)/C=C/c2ccncc2)/C=C/C(=O)O1 [Compound 14c] | 1000 to 10000 nM | 1000 to 10000 nM | 100 to 1000 nM | 100 to 1000 nM | 1000 to 10000 nM | 100 to 1000 nM | 1000 to 10000 nM | 100 to 1000 nM |  |  |  |  |  |  |
| C[C@H]1CCC/C=C/[C@@H]2C[C@H](OC(=O)/C=C/c3ccccn3)C[C@H]2[C@H](O)/C=C/C(=O)O1 [Compound 15a, 7-O-(3-(pyridine-2-yl)acrylic acid)acyl BFA] | 1000 to 10000 nM | 100 to 1000 nM | 100 to 1000 nM | 100 to 1000 nM | 100 to 1000 nM | < 100 nM | < 100 nM | 100 to 1000 nM |  |  |  |  |  |  |
| C[C@H]1CCC/C=C/[C@@H]2C[C@H](O)C[C@H]2[C@H](OC(=O)/C=C/c2ccccn2)/C=C/C(=O)O1 [Compound 15b] | 100 to 1000 nM | 100 to 1000 nM | 100 to 1000 nM | 100 to 1000 nM | 100 to 1000 nM | < 100 nM | < 100 nM | 100 to 1000 nM |  |  |  |  |  |  |
| C[C@H]1CCC/C=C/[C@@H]2C[C@H](OC(=O)/C=C/c3ccccn3)C[C@H]2[C@H](OC(=O)/C=C/c2ccccn2)/C=C/C(=O)O1 [Compound 15c] | 1000 to 10000 nM | 100 to 1000 nM | 100 to 1000 nM | 100 to 1000 nM | 1000 to 10000 nM | 100 to 1000 nM | 100 to 1000 nM | 1000 to 10000 nM |  |  |  |  |  |  |
| C[C@H]1CCC/C=C/[C@@H]2C[C@H](O)C[C@H]2[C@H](OC(=O)/C=C/c2cccnc2)/C=C/C(=O)O1 [Compound 16b] | 100 to 1000 nM | 100 to 1000 nM | 100 to 1000 nM | 100 to 1000 nM | 100 to 1000 nM | < 100 nM | < 100 nM | 100 to 1000 nM | no deaths | good mental condition | no significant abnormality in all organs |  |  |  |
| C[C@H]1CCC/C=C/[C@@H]2C[C@H](OC(=O)/C=C/c3cccnc3)C[C@H]2[C@H](OC(=O)/C=C/c2cccnc2)/C=C/C(=O)O1 [Compound 16c] | 1000 to 10000 nM | 1000 to 10000 nM | 100 to 1000 nM | 100 to 1000 nM | 1000 to 10000 nM | 100 to 1000 nM | 100 to 1000 nM | 1000 to 10000 nM | no deaths | good mental condition | no significant abnormality in all organs |  |  |  |
| C[C@H]1CCC/C=C/[C@@H]2C[C@H](OC(=O)/C=C/c3cnc4ccccc4c3)C[C@H]2[C@H](O)/C=C/C(=O)O1 [Compound 17a, 7-O-(3-(quinoline-3-yl)acrylic acid)acyl BFA] | 100 to 1000 nM | 100 to 1000 nM | 100 to 1000 nM | 100 to 1000 nM | 100 to 1000 nM | < 100 nM | < 100 nM | 100 to 1000 nM |  |  |  |  |  |  |
| C[C@H]1CCC/C=C/[C@@H]2C[C@H](O)C[C@H]2[C@H](OC(=O)/C=C/c2cnc3ccccc3c2)/C=C/C(=O)O1 [Compound 17b] | 100 to 1000 nM | 100 to 1000 nM | 100 to 1000 nM | 100 to 1000 nM | 100 to 1000 nM | < 100 nM | < 100 nM | 100 to 1000 nM |  |  |  |  |  |  |
